This is an account of results in patent US12384789B2, “Compounds for treating Huntington's disease” (PTC Therapeutics, Inc., priority 2017, dated 2025).

pIC50: −log10 of the molar value.

For the assay, the system named is Endogenous Huntingtin Protein. Description: Endogenous Huntingtin Protein Assay (Meso Scale Discovery ELISA-based electrochemiluminescence). It counts as cell-based. Particulars: MSD electrochemiluminescence, Table 1. Here is the method:
Compounds of Formula (I) were tested using the Meso Scale Discovery (MSD) Assay provided in International Application No. PCT/US2016/066042, filed on Dec. 11, 2016 and claiming priority to United States Provisional Application U.S. 62/265,652 filed on Dec. 10, 2015, the entire contents of which are incorporated herein by reference.
The Endogenous Huntingtin Protein assay used in Example 1 was developed using the ELISA-based MSD electrochemiluminescence assay platform.
Endogenous Huntingtin Protein Assay
Meso Scale Discovery (MSD) 96-well or 384-well plates were coated overnight at 4° C. with MW1 (expanded polyglutamine) or MAB2166 monoclonal antibody (for capture) at a concentration of 1 μg/mL in PBS (30 μL per well). Plates were then washed three times with 300 μL wash buffer (0.05% Tween-20 in PBS) and blocked (100 μL blocking buffer; 5% BSA in PBS) for 4-5 hours at room temperature with rotational shaking and then washed three times with wash buffer.
Samples (25 μL) were transferred to the antibody-coated MSD plate and incubated overnight at 4° C. After removal of the lysates, the plate was washed three times with wash buffer, and 25 μL of #5656S (Cell signaling; rabbit monoclonal) secondary antibody (diluted to 0.25 μg/mL in 0.05% Tween-20 in blocking buffer) was added to each well and incubated with shaking for 1 Hour at room temperature. Following incubation with the secondary antibody, the wells were rinsed with wash buffer after which 25 μL of goat anti-rabbit SULFO TAG secondary detection antibody (required aspect of the MSD system) (diluted to 0.25 μg/mL in 0.05% Tween-20 in blocking buffer) was added to each well and incubated with shaking for 1 hour at room temperature. After rinsing three times with wash buffer, 150 μL of read buffer T with surfactant (MSD) were added to each empty well, and the plate was imaged on a SI 6000 imager (MSD) according to manufacturers' instructions provided for 96- or 384-well plates.
By pIC50 is commonly meant the IC50 on a negative log10 scale, so that one unit is a factor of ten. Low values mean a large IC50, high ones a small IC50. For `Cc1cn2nc(-c3cc(F)c4cc(C5CCNCC5)nnc4c3)cc(OCCn3cccn3)c2n1` [Compound 140, 5-fluoro-7-{2-methyl-8-[2-(1H-pyrazol-1-yl)ethoxy]imidazo[1,2-b]pyridazin-6-yl}-3-(piperidin-4-yl)cinnoline], the pIC50 is no less than 7.00.

`Cc1cc(-c2ccc3nc(C4CCNCC4)ncc3c2)cc2cn(C)nc12` [Compound 23, 6-(2,7-dimethyl-2H-indazol-5-yl)-2-(piperidin-4-yl)quinazoline] gave a pIC50 of 6.30 to 7.00.

For `Cc1cn2nc(-c3cc(F)c4cc(C5CCNCC5)nnc4c3)cc(OCCCn3ccnc3)c2n1` [Compound 142, 5-fluoro-7-{8-[3-(1H-imidazol-1-yl)propoxy]-2-methylimidazo[1,2-b]pyridazin-6-yl}-3-(piperidin-4-yl)cinnoline], the pIC50 was 6.30 to 7.00.

`Cc1cn2cc(-c3cc(F)c4nc(C5CCNCC5)nnc4c3)cc(F)c2n1` [Compound 58, 5-fluoro-7-(8-fluoro-2-methylimidazo[1,2-a]pyridin-6-yl)-3-(piperidin-4-yl)-1,2,4-benzotriazine]: the pIC50 was no less than 7.00.

Turning to `Cc1cn2nc(-c3cc(F)c4cc(C5CCN(CCn6cnc7ccccc76)CC5)nnc4c3)cc(C)c2n1` [Compound 159, 3-{1-[2-(1H-benzimidazol-1-yl)ethyl]piperidin-4-yl}-7-(2,8-dimethylimidazo[1,2-b]pyridazin-6-yl)-5-fluorocinnoline], the pIC50 is no less than 7.00.

On to `Cc1cn2nc(-c3cc(F)c4cc(C5CCCN(C)CC5)nnc4c3)cc(C)c2n1` (centres unmarked) [Compound 188, 7-(2,8-dimethylimidazo[1,2-b]pyridazin-6-yl)-5-fluoro-3-(1-methylazepan-4-yl)cinnoline], for which the pIC50 is no less than 7.00.

`Cc1cc2oc(-c3cc(F)c4cc(C5CCNCC5)nnc4c3)nc2c(C)n1` [Compound 137, 7-(4,6-dimethyl[1,3]oxazolo[4,5-c]pyridin-2-yl)-5-fluoro-3-(piperidin-4-yl)cinnoline] gave a pIC50 of no less than 7.00.

Compound `Cc1cn2nc(-c3cc(F)c4cc(C5CCN(CCN(C)C)CC5)nnc4c3)cc(C)c2n1` [Compound 127, 2-{4-[7-(2,8-dimethylimidazo[1,2-b]pyridazin-6-yl)-5-fluorocinnolin-3-yl]piperidin-1-yl}-N,N-dimethylethan-1-amine] had a negative-log IC50 (pIC50) of no less than 7.00.

Regarding `CCN1CCC(c2cc3c(F)cc(-c4cc(C)c5nc(C)[nH]c5n4)cc3nn2)CC1` [Compound 132, 7-(2,7-dimethyl-3H-imidazo[4,5-b]pyridin-5-yl)-3-(1-ethylpiperidin-4-yl)-5-fluorocinnoline], the negative logarithm of the IC50 (pIC50) was no less than 7.00.

As for `CCCc1cc(-c2cc(F)c3cc(C4CCN(CC)CC4)nnc3c2)nn2cc(C)nc12` [Compound 212, 3-(1-ethylpiperidin-4-yl)-5-fluoro-7-(2-methyl-8-propylimidazo[1,2-b]pyridazin-6-yl)cinnoline], the pIC50 was 6.30 to 7.00.

Regarding `Cc1cc(-c2ccc3nc(C4CCNCC4)ncc3c2F)cc2cn(C)nc12` [Compound 38, 6-(2,7-dimethyl-2H-indazol-5-yl)-5-fluoro-2-(piperidin-4-yl)quinazoline], the pIC50 is 5.52 to 6.00.

As for `CCN1CCC(c2cc3c(F)cc(-c4cc(C)c5nc(C)sc5c4)cc3nn2)CC1` [Compound 120, 7-(2,4-dimethyl-1,3-benzothiazol-6-yl)-3-(1-ethylpiperidin-4-yl)-5-fluorocinnoline], the pIC50 is 5.52 to 6.00.

Take `Cc1cn2nc(-c3cc(F)c4cc(C5CCN(C(C)C)CC5)nnc4c3)cc(C)c2n1` [Compound 78, 7-(2,8-dimethylimidazo[1,2-b]pyridazin-6-yl)-5-fluoro-3-[1-(propan-2-yl)piperidin-4-yl]cinnoline]: the pIC50 is no less than 7.00.

`Cc1cn2nc(-c3cc(F)c4cc(C5CCNCC5)nnc4c3)cc(C3CC3)c2n1` [Compound 112, 7-(8-cyclopropyl-2-methylimidazo[1,2-b]pyridazin-6-yl)-5-fluoro-3-(piperidin-4-yl)cinnoline] had a pIC50 of no less than 7.00.

`Cc1cn2nc(-c3cc(F)c4nc(C5CCNCC5)ccc4c3)cc(C)c2n1` [Compound 45, 6-(2,8-dimethylimidazo[1,2-b]pyridazin-6-yl)-8-fluoro-2-(piperidin-4-yl)quinoline] showed a negative-log IC50 (pIC50) of no less than 7.00.

Take `Cc1cc(-c2cc(F)c3cc(C4CCNCC4)ncc3c2)cc2cn(C)nc12` [Compound 71, 7-(2,7-dimethyl-2H-indazol-5-yl)-5-fluoro-3-(piperidin-4-yl)isoquinoline]: the pIC50 is no less than 7.00.

`Cn1cc2cc(-c3ncc4cc(C5CCNCC5)ccc4n3)ccc2n1` [Compound 10, 2-(2-methyl-2H-indazol-5-yl)-6-(piperidin-4-yl)quinazoline] gave a pIC50 of 6.30 to 7.00.

`Cc1nc2c(C)cc(-c3cc(F)c4cc(C5C[C@@H](C)N(C)[C@@H](C)C5)nnc4c3)nc2o1` (stereo partly drawn) [Compound 226, 5-(5-fluoro-3-((2S,4R,6R)-1,2,6-trimethylpiperidin-4-yl)cinnolin-7-yl)-2,7-dimethyloxazolo[5,4-b]pyridine] gave a pIC50 of no less than 7.00.

Compound `Cc1cn2cc(-c3cc(F)c4cc(C5CCNCC5)nnc4c3)cc(C)c2n1` [Compound 103, 7-(2,8-dimethylimidazo[1,2-a]pyridin-6-yl)-5-fluoro-3-(piperidin-4-yl)cinnoline] gave a pIC50 of no less than 7.00.

With `Cc1cn2cc(-c3cc(F)c4nc(C5CCNCC5)nnc4c3)cc2c(C)n1` [Compound 64, 7-(1,3-dimethylpyrrolo[1,2-a]pyrazin-7-yl)-5-fluoro-3-(piperidin-4-yl)-1,2,4-benzotriazine], the negative-log IC50 (pIC50) is no less than 7.00.

Regarding `Cc1cc(-c2ccc3nc(N(C)C4CC(C)(C)NC(C)(C)C4)ccc3c2)cc2cn(C)nc12` [Compound 11, 6-(2,7-dimethyl-2H-indazol-5-yl)-N-methyl-N-(2,2,6,6-tetramethylpiperidin-4-yl)quinolin-2-amine], the negative-log IC50 (pIC50) is 5.52 to 6.00.

`Cc1cc2oc(-c3cc(F)c4cc(C5CCN(CCO)CC5)nnc4c3)nc2c(C)n1` [Compound 213, 2-{4-[7-(4,6-dimethyl[1,3]oxazolo[4,5-c]pyridin-2-yl)-5-fluorocinnolin-3-yl]piperidin-1-yl}ethan-1-ol] gave a pIC50 of 6.30 to 7.00.

With `Cc1cn2nc(-c3cc(F)c4cc(C5CCNCC5)nnc4c3)cc(Oc3ccccc3)c2n1` [Compound 195, 5-fluoro-7-(2-methyl-8-phenoxyimidazo[1,2-b]pyridazin-6-yl)-3-(piperidin-4-yl)cinnoline], the pIC50 is no less than 7.00.

Turning to `CCN1CCC(c2cc3c(F)cc(-c4cc(C#N)c5nc(C)cn5n4)cc3nn2)CC1` [Compound 114, 6-[3-(1-ethylpiperidin-4-yl)-5-fluorocinnolin-7-yl]-2-methylimidazo[1,2-b]pyridazine-8-carbonitrile], the negative logarithm of the IC50 (pIC50) is no less than 7.00.

For the compound `COCCOc1cc(-c2cc(F)c3nc(C4CCNCC4)ccc3c2)nn2cc(C)nc12` [Compound 53, 8-fluoro-6-[8-(2-methoxyethoxy)-2-methylimidazo[1,2-b]pyridazin-6-yl]-2-(piperidin-4-yl)quinoline], the negative-log IC50 (pIC50) was 6.30 to 7.00.

Consider `CCN1CCCC(c2cc3c(F)cc(-c4cc(C)c5nc(C)cn5n4)cc3nn2)CC1` (centres unmarked) [Compound 189, 7-(2,8-dimethylimidazo[1,2-b]pyridazin-6-yl)-3-(1-ethylazepan-4-yl)-5-fluorocinnoline], for which the pIC50 was no less than 7.00.
